Test systems include KM12; HCC 2998; M14; T47D; SK-OV-3; SF-295; PC-3; Malme-3M; UO-31; UACC-62; CAKI-1; BT-549; SK-MEL-2; NCI-H460; OVCAR-4; UACC-257; HL-60; SF-539; K562.
Test in all cases: inhibition of tumour cell growth, NCI panel, 48 h

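These data come from cells grown in 96-well plates and exposed to compound for 48 hours at five concentrations. GI50 is the concentration that inhibits growth by half.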 Activity calls are given as the source filed them. No stated cut-off is given here; in the data, active = GI50 up to about 1.1 µM and inactive = higher.

Consider `O=C1CCCCC/C1=C\c1cccc(Cl)c1`, for which the GI50 was 30.8 µM (inactive) with KM12; 41.7 µM (inactive) with HCC 2998; 32.4 µM (inactive) in the experiment on M14; > 100 µM (inactive) in the experiment with T47D; > 100 µM (inactive) in the experiment with SK-OV-3; 20 µM (inactive) in the experiment with SF-295. In addition, the GI50 in the experiment on PC-3 is 22.5 µM (inactive); in the experiment on Malme-3M, 42.9 µM (inactive); in the experiment with UO-31, 24.1 µM (inactive); with UACC-62, 45.9 µM (inactive); with CAKI-1, 72.6 µM (inactive); with BT-549 it was 43.2 µM (inactive). Further, the GI50 in the experiment with SK-MEL-2 was 46.5 µM (inactive); in the experiment on NCI-H460, 29.6 µM (inactive); in the experiment on OVCAR-4, 26.5 µM (inactive); in the experiment on UACC-257 it was 42.1 µM (inactive).

Regarding `COc1ccc(/C=C/c2cnc3ccccc3n2)cc1OC`, the GI50 was 47.8 µM (inactive) with KM12; 75.7 µM (inactive) with M14; 31 µM (inactive) in the experiment with T47D; 75.7 µM (inactive) with SK-OV-3; 52.8 µM (inactive) in the experiment on SF-295; 47.2 µM (inactive) in the experiment with HL-60. Besides, the GI50 is 33.1 µM (inactive) in the experiment with PC-3; > 100 µM (inactive) with SF-539; 38.2 µM (inactive) in the experiment with Malme-3M; 34.7 µM (inactive) in the experiment with UO-31; 77.3 µM (inactive) with UACC-62; 74.3 µM (inactive) in the experiment on CAKI-1. For the same molecule, the GI50 was 57.1 µM (inactive) in the experiment on BT-549; 92.7 µM (inactive) in the experiment with SK-MEL-2; 44.5 µM (inactive) in the experiment with K562; 30.3 µM (inactive) in the experiment on NCI-H460; 34.8 µM (inactive) with OVCAR-4; > 100 µM (inactive) in the experiment on UACC-257.

On to `COCC1OC(N2C(=O)NC(=O)[C@@H]3C=C4CCCCC4=C[C@@H]32)C(OC)C1OC` (stereo partly specified), for which the GI50 with KM12 was > 100 µM (inactive); in the experiment with M14, > 100 µM (inactive); in the experiment with T47D, > 100 µM (inactive); in the experiment on SK-OV-3 it was > 100 µM (inactive); in the experiment on SF-295, > 100 µM (inactive); in the experiment on HL-60, 51.6 µM (inactive). Further, the GI50 in the experiment on PC-3 was > 100 µM (inactive); in the experiment on SF-539 it was > 100 µM (inactive); in the experiment on Malme-3M, > 100 µM (inactive); in the experiment with UO-31, 98.9 µM (inactive); in the experiment on UACC-62 it was > 100 µM (inactive); in the experiment on BT-549 it was > 100 µM (inactive). Moreover, the GI50 with SK-MEL-2, in the experiment on K562, in the experiment with NCI-H460, in the experiment with OVCAR-4 and in the experiment with UACC-257 was > 100 µM (inactive) throughout.

Take `CCSC1=N/C(=C\c2ccco2)C(Cl)=N1`: the GI50 in the experiment with KM12, in the experiment with M14, in the experiment with T47D, in the experiment with SK-OV-3, with SF-295 and with HL-60 was > 100 µM (inactive) in each case. In addition, the GI50 with PC-3, in the experiment on SF-539, with UO-31, with UACC-62, in the experiment with CAKI-1 and in the experiment on BT-549 was > 100 µM (inactive) each time. The GI50 in the experiment with SK-MEL-2, with K562, with NCI-H460 and in the experiment with UACC-257 was > 100 µM (inactive) throughout.

As to `O=C1NC(c2cccc3ccccc23)Nc2ccccc21` (stereo unspecified), the GI50 was 0.0399 µM (active) with KM12; 0.0736 µM (active) with HCC 2998; 0.0298 µM (active) in the experiment on M14; 0.0362 µM (active) in the experiment on SK-OV-3; < 0.0202 µM (active) in the experiment on SF-295; 0.0423 µM (active) in the experiment on PC-3. Further, the GI50 was 0.0363 µM (active) in the experiment with SF-539; 0.0463 µM (active) in the experiment with Malme-3M; 1.05 µM (active) in the experiment on UO-31; < 0.0184 µM (active) in the experiment on UACC-62; < 0.0409 µM (active) with CAKI-1; 0.454 µM (active) with BT-549. The GI50 with SK-MEL-2 was 0.04 µM (active); with K562 it was < 0.0212 µM (active); with NCI-H460 it was 0.0506 µM (active); in the experiment on OVCAR-4, 0.00931 µM (active); with UACC-257 it was 0.0465 µM (active).

In the case of `NS(=O)(=O)c1cc2c(cc1Cl)N=C(CCC(=O)O)NS2(=O)=O`, the GI50 with KM12, with M14, with T47D, in the experiment on SK-OV-3, with SF-295 and with PC-3 was > 100 µM (inactive) throughout. The GI50 in the experiment on SF-539, in the experiment with Malme-3M, with UO-31, with UACC-62, in the experiment on CAKI-1 and with BT-549 was > 100 µM (inactive) each time. The GI50 with SK-MEL-2, in the experiment on K562, in the experiment with NCI-H460, in the experiment on OVCAR-4 and in the experiment with UACC-257 was > 100 µM (inactive) throughout.

With `CC(=O)c1ccc2c(c1)CC1(C2)Cc2cc3c(cc2C1=O)CCC3` (stereo unspecified), the GI50 in the experiment with KM12 is 17.5 µM (inactive); in the experiment with HCC 2998 it was 18.6 µM (inactive); in the experiment with M14, 15 µM (inactive); in the experiment with T47D it was 20.5 µM (inactive); in the experiment on SK-OV-3, 33.6 µM (inactive); in the experiment on SF-295, 21.8 µM (inactive). Moreover, the GI50 was 14.3 µM (inactive) in the experiment on HL-60; 19.2 µM (inactive) with PC-3; 29.9 µM (inactive) in the experiment on SF-539; 13.3 µM (inactive) in the experiment with Malme-3M; 26.1 µM (inactive) in the experiment with UO-31; 12.9 µM (inactive) with CAKI-1. Besides, the GI50 was 21.7 µM (inactive) in the experiment on SK-MEL-2; 16.5 µM (inactive) in the experiment with K562; 26.1 µM (inactive) in the experiment with NCI-H460; 15.1 µM (inactive) in the experiment with OVCAR-4; 15 µM (inactive) with UACC-257.

With `COc1cc(OC)c(OC)cc1/C=N/N=C(\N)NO`, the GI50 in the experiment on KM12 was 18.5 µM (inactive); in the experiment on HCC 2998, > 100 µM (inactive); with M14, > 100 µM (inactive); in the experiment with T47D, > 100 µM (inactive); with SK-OV-3, > 100 µM (inactive); in the experiment on SF-295 it was 51.1 µM (inactive). For the same molecule, the GI50 in the experiment with HL-60 was 83.9 µM (inactive); with PC-3, > 100 µM (inactive); in the experiment on SF-539, > 100 µM (inactive); with Malme-3M, > 100 µM (inactive); in the experiment on UO-31, > 100 µM (inactive); in the experiment with UACC-62, > 100 µM (inactive). Besides, the GI50 is > 100 µM (inactive) in the experiment with CAKI-1; 99.8 µM (inactive) in the experiment on SK-MEL-2; 88.7 µM (inactive) in the experiment with K562; > 100 µM (inactive) with NCI-H460; > 100 µM (inactive) in the experiment with OVCAR-4; > 100 µM (inactive) in the experiment on UACC-257.

As to `Cc1ccc(S(=O)(=O)N/N=C2/C3C(CC2(C)C)C2(C)CCCC3(C)C2O)cc1` (stereo unspecified), the GI50 is 18.3 µM (inactive) in the experiment with KM12; 22.9 µM (inactive) with M14; 18.2 µM (inactive) in the experiment with T47D; 20.9 µM (inactive) in the experiment on SK-OV-3; 15.4 µM (inactive) with SF-295; 26.1 µM (inactive) in the experiment with HL-60. For the same molecule, the GI50 with PC-3 is 9.59 µM (inactive); with Malme-3M, 24 µM (inactive); with UO-31 it was 26.2 µM (inactive); with UACC-62 it was 14.8 µM (inactive); in the experiment with CAKI-1 it was 39.3 µM (inactive); in the experiment on BT-549 it was 14.3 µM (inactive). The GI50 in the experiment with SK-MEL-2 was 21 µM (inactive); in the experiment on K562, 23.9 µM (inactive); with NCI-H460 it was 17.8 µM (inactive); with OVCAR-4, 19.1 µM (inactive); in the experiment on UACC-257, 16.8 µM (inactive).

Turning to `COC(=O)/C=C\COCC1C2CCC(=O)C21` (stereo unspecified), the GI50 is 17.9 µM (inactive) in the experiment with KM12; > 25 µM (inactive) with HCC 2998; 8.36 µM (inactive) with M14; > 25 µM (inactive) in the experiment with SK-OV-3; > 25 µM (inactive) in the experiment on SF-295; > 25 µM (inactive) in the experiment on PC-3. For the same molecule, the GI50 with SF-539 was 7.16 µM (inactive); with Malme-3M it was 4.67 µM (inactive); with UO-31, 11.6 µM (inactive); in the experiment on UACC-62 it was 16.4 µM (inactive); in the experiment with CAKI-1, 0.632 µM (active); in the experiment on BT-549, 11 µM (inactive). The GI50 was > 25 µM (inactive) in the experiment with SK-MEL-2; 8.28 µM (inactive) in the experiment with K562; 6.79 µM (inactive) in the experiment on NCI-H460; > 25 µM (inactive) with OVCAR-4; 10.4 µM (inactive) in the experiment on UACC-257.

On to `COc1ccc(CCc2ccc(O)c(C(=O)O)c2)cc1OC`, for which the GI50 with KM12, in the experiment with HCC 2998, with M14, with T47D, in the experiment on SK-OV-3 and in the experiment with SF-295 was > 100 µM (inactive) each time. The GI50 in the experiment with HL-60 was > 100 µM (inactive); in the experiment with PC-3 it was > 100 µM (inactive); in the experiment with SF-539, 37.2 µM (inactive); in the experiment with Malme-3M, > 100 µM (inactive); in the experiment on UO-31, > 100 µM (inactive); in the experiment with UACC-62, > 100 µM (inactive). Further, the GI50 in the experiment with CAKI-1 was 32.4 µM (inactive); in the experiment with SK-MEL-2 it was > 100 µM (inactive); in the experiment with K562 it was 59.7 µM (inactive); in the experiment on NCI-H460, > 100 µM (inactive); in the experiment with OVCAR-4, > 100 µM (inactive); with UACC-257, > 100 µM (inactive).

Consider `COC(=O)c1ccccc1C1CN=NC12Cc1c(C)cccc1C2=O` (stereo unspecified), for which the GI50 in the experiment on KM12 is > 100 µM (inactive); with HCC 2998, > 100 µM (inactive); with M14, > 100 µM (inactive); in the experiment with T47D it was 52.7 µM (inactive); in the experiment on SK-OV-3, > 100 µM (inactive); in the experiment on SF-295, 79.4 µM (inactive). For the same molecule, the GI50 in the experiment on HL-60 was 87.3 µM (inactive); in the experiment on SF-539 it was > 100 µM (inactive); with Malme-3M, > 100 µM (inactive); with UO-31, 73.1 µM (inactive); in the experiment on UACC-62, > 100 µM (inactive); with CAKI-1, > 100 µM (inactive). Further, the GI50 in the experiment on BT-549 was > 100 µM (inactive); with SK-MEL-2, 48.3 µM (inactive); with K562, > 100 µM (inactive); in the experiment with NCI-H460, > 100 µM (inactive); with OVCAR-4, > 100 µM (inactive); in the experiment on UACC-257, > 100 µM (inactive).

(Values after ChEMBL document CHEMBL1201862, “PubChem BioAssay data set” (2004).)
